From ChEMBL document CHEMBL5303573, “Mapping human microbiome drug metabolism by gut bacteria and their genes” (Nature, 2019) come the findings set out here.

The nature of data set [1]: The drug is tested on Anaerococcus hydrogenalis strain: DSM7454 for biotransformation. The drug concentrations were measured before and after a 12-h incubation by liquid-chromatography-coupled mass spectrometry (LC–MS). The settings on record: 2 µM.
Data set [2] is described as follows: The drug is tested on Bacteroides caccae strain: ATCC43185 for biotransformation. The drug concentrations were measured before and after a 12-h incubation by liquid-chromatography-coupled mass spectrometry (LC–MS). The settings on record: 2 µM.
Data set [3] is described as follows: The drug is tested on Parabacteroides merdae strain: ATCC43184 for biotransformation. The drug concentrations were measured before and after a 12-h incubation by liquid-chromatography-coupled mass spectrometry (LC–MS). The settings on record: 2 µM.
The nature of data set [4]: The drug is tested on Blautia luti strain: DSM14534 for biotransformation. The drug concentrations were measured before and after a 12-h incubation by liquid-chromatography-coupled mass spectrometry (LC–MS). The format is ADME. More on the design: dose 2 uM, timepoint 0 vs 12 hours. The settings on record: 2 µM.
The nature of data set [5]: The drug is tested on Edwardsiella tarda strain: ATCC23685 for biotransformation. The drug concentrations were measured before and after a 12-h incubation by liquid-chromatography-coupled mass spectrometry (LC–MS). The conditions noted are these: 2 µM.
Data set [6] is described as follows: The drug is tested on Bacteroides pectinophilus strain: ATCC43243 for biotransformation. The drug concentrations were measured before and after a 12-h incubation by liquid-chromatography-coupled mass spectrometry (LC–MS). The conditions noted are these: 2 µM.
Data set [7] is described as follows: The drug is tested on Clostridium ramosum strain: DSM1402 for biotransformation. The drug concentrations were measured before and after a 12-h incubation by liquid-chromatography-coupled mass spectrometry (LC–MS). The conditions noted are these: thomasclavelia ramosa, 2 µM.
Data set [8] in a line: The drug is tested on Bacteroides fragilis strain: HMW615 for biotransformation. The drug concentrations were measured before and after a 12-h incubation by liquid-chromatography-coupled mass spectrometry (LC–MS). The conditions noted are these: 2 µM.
A short description of data set [9]: The drug is tested on Eubacterium rectale strain: ATCC33656 for biotransformation. The drug concentrations were measured before and after a 12-h incubation by liquid-chromatography-coupled mass spectrometry (LC–MS). The conditions noted are these: agathobacter rectalis, 2 µM.
For data set [10] the following is noted: bacteroides thetaiotaomicron, 12 h, 2 µM.
Description: The drug is tested on Bacteroides thetaiotaomicron strain: 3731 for biotransformation. The drug concentrations were measured before and after a 12-h incubation by liquid-chromatography-coupled mass spectrometry (LC–MS)
Data set [11] in a line: The drug is tested on Bacteroides fragilis strain: ATCC43859 for biotransformation. The drug concentrations were measured before and after a 12-h incubation by liquid-chromatography-coupled mass spectrometry (LC–MS). The settings on record: 2 µM.
The nature of data set [12]: The drug is tested on Odoribacter splanchnicus strain: fecal isolate for biotransformation. The drug concentrations were measured before and after a 12-h incubation by liquid-chromatography-coupled mass spectrometry (LC–MS). The conditions noted are these: 2 µM.
The conditions of data set [13]: parabacteroides johnsonii, 12 h, 2 µM.
Description: The drug is tested on Parabacteroides johnsonii strain: DSM18315 for biotransformation. The drug concentrations were measured before and after a 12-h incubation by liquid-chromatography-coupled mass spectrometry (LC–MS)
A short description of data set [14]: The drug is tested on Providencia stuartii strain: ATCC25827 for biotransformation. The drug concentrations were measured before and after a 12-h incubation by liquid-chromatography-coupled mass spectrometry (LC–MS). The conditions noted are these: 2 µM.
For data set [15] the following is noted: bacteroides fragilis, 12 h, 2 µM.
Description: The drug is tested on Bacteroides fragilis strain: DS-208 for biotransformation. The drug concentrations were measured before and after a 12-h incubation by liquid-chromatography-coupled mass spectrometry (LC–MS)
The conditions of data set [16]: roseburia intestinalis, 12 h, 2 µM.
Description: The drug is tested on Roseburia intestinalis strain: L1-82 for biotransformation. The drug concentrations were measured before and after a 12-h incubation by liquid-chromatography-coupled mass spectrometry (LC–MS)
The conditions of data set [17]: bacteroides fragilis, 12 h, 2 µM. The source holds these as a separate data set.
Description: The drug is tested on Bacteroides fragilis strain: 3397 (T10) for biotransformation. The drug concentrations were measured before and after a 12-h incubation by liquid-chromatography-coupled mass spectrometry (LC–MS)
Data set [18] in a line: The drug is tested on Bacteroides fragilis strain: HMW610 for biotransformation. The drug concentrations were measured before and after a 12-h incubation by liquid-chromatography-coupled mass spectrometry (LC–MS). The conditions noted are these: 2 µM.
Data set [19] in a line: The drug is tested on Clostridium sp. strain: fecal isolate for biotransformation. The drug concentrations were measured before and after a 12-h incubation by liquid-chromatography-coupled mass spectrometry (LC–MS). The settings on record: 2 µM.
Data set [20] is described as follows: The drug is tested on Ruminococcus lactaris strain: ATCC29176 for biotransformation. The drug concentrations were measured before and after a 12-h incubation by liquid-chromatography-coupled mass spectrometry (LC–MS). The settings on record: 2 µM.

Consider `CC(=O)O[C@H]1C(=O)[C@@]2(C)[C@H]([C@H](OC(=O)c3ccccc3)[C@]3(O)C[C@H](OC(=O)[C@H](O)[C@@H](NC(=O)c4ccccc4)c4ccccc4)C(C)=C1C3(C)C)[C@]1(OC(C)=O)CO[C@@H]1C[C@@H]2O` [PACLITAXEL], for which the “Bacterial Biotransformation” value in data set [1], in data set [2], in [3], in data set [4], in [5] and in data set [6] was “Compound NOT metabolized” each time. The “Bacterial Biotransformation” value in [7] is reported as “Compound NOT metabolized”; in data set [8], “Compound NOT metabolized”; in [9], “Compound NOT metabolized”; in data set [10] it was “Compound NOT metabolized”; in data set [11], “Compound NOT metabolized”; in [12] it was “Compound metabolized”. For the same compound, the “Bacterial Biotransformation” value is “Compound NOT metabolized” in [13]; “Compound NOT metabolized” in data set [14]; “Compound metabolized” in data set [15]; “Compound NOT metabolized” in data set [16]; “Compound NOT metabolized” in [17].

For the compound `CCC(=O)NCC[C@@H]1CCc2ccc3c(c21)CCO3` [RAMELTEON], the “Bacterial Biotransformation” value is “Compound NOT metabolized” in data set [1]; “Compound metabolized” in data set [3]; “Compound NOT metabolized” in [4]; “Compound NOT metabolized” in data set [5]; “Compound metabolized” in data set [18]; “Compound NOT metabolized” in data set [6]. The “Bacterial Biotransformation” value is on record as “Compound NOT metabolized” in [19]; “Compound NOT metabolized” in data set [7]; “Compound metabolized” in [10]; “Compound metabolized” in data set [11]; “Compound metabolized” in data set [12]; “Compound NOT metabolized” in data set [13]. Also, the “Bacterial Biotransformation” value in data set [20] was “Compound NOT metabolized”; in data set [15], “Compound metabolized”.

As to `CC(C)(C)NCC(O)COc1cccc2c1CC(O)C(O)C2` (configuration not stated) [NADOLOL], the “Bacterial Biotransformation” value in data set [1], in [2], in [3], in [4], in [5] and in [18] was “Compound NOT metabolized” in each case. For the same compound, the “Bacterial Biotransformation” value in [6], in data set [19], in data set [7], in data set [8], in data set [11] and in data set [12] was “Compound NOT metabolized” each time. Also, the “Bacterial Biotransformation” value in data set [13], in data set [14], in data set [20], in data set [15], in [16] and in data set [17] was “Compound NOT metabolized” each time.

As for `Cc1cc(C)cc(OCC2CNC(=O)O2)c1` (configuration not stated) [METAXALONE], the “Bacterial Biotransformation” value is “Compound NOT metabolized” in data set [1]; “Compound NOT metabolized” in data set [2]; “Compound NOT metabolized” in [4]; “Compound metabolized” in [18]; “Compound metabolized” in data set [6]; “Compound metabolized” in data set [19]. Besides, the “Bacterial Biotransformation” value is “Compound metabolized” in data set [8]; “Compound NOT metabolized” in [9]; “Compound NOT metabolized” in data set [10]; “Compound metabolized” in data set [11]; “Compound NOT metabolized” in [12]; “Compound NOT metabolized” in data set [14]. The “Bacterial Biotransformation” value in data set [20] and in [16] was “Compound NOT metabolized” in each case.

For the compound `CCc1nc(N)nc(N)c1-c1ccc(Cl)cc1` [PYRIMETHAMINE], the “Bacterial Biotransformation” value in data set [1], in data set [2], in [3], in data set [4], in data set [5] and in [18] was “Compound NOT metabolized” each time. The “Bacterial Biotransformation” value in data set [6], in data set [19], in data set [8], in [10], in data set [11] and in data set [12] was “Compound NOT metabolized” throughout. Further, the “Bacterial Biotransformation” value in [13], in data set [14], in data set [20], in data set [15], in data set [16] and in [17] was “Compound NOT metabolized” each time.

`Cc1ccc(/C(=C\CN2CCCC2)c2ccccn2)cc1` [TRIPROLIDINE]: the “Bacterial Biotransformation” value in data set [1], in data set [2], in data set [3], in [4], in [5] and in [18] was “Compound NOT metabolized” in each case. Besides, the “Bacterial Biotransformation” value in [6], in data set [19], in data set [7], in [8], in data set [10] and in [11] was “Compound NOT metabolized” in each case. Also, the “Bacterial Biotransformation” value in data set [12], in [13], in data set [14], in [20], in data set [15] and in [16] was “Compound NOT metabolized” throughout. Moreover, in [17], the “Bacterial Biotransformation” value is “Compound NOT metabolized”.

In the case of `COc1c2occc2cc2ccc(=O)oc12` [METHOXSALEN], the “Bacterial Biotransformation” value in data set [1] was “Compound NOT metabolized”; in [2], “Compound metabolized”; in data set [5] it was “Compound NOT metabolized”; in data set [18], “Compound metabolized”; in data set [6] it was “Compound NOT metabolized”; in [19], “Compound metabolized”. The “Bacterial Biotransformation” value in data set [7], in data set [8], in data set [11], in [12], in data set [13] and in data set [16] was “Compound metabolized” in each case.
